{"source": "patent US20100152270A1", "about": "“PESTICIDE COMPOSITION COMPRISING A STRIGOLACTONE DERIVATIVE AND A FUNGICIDE COMPOUND” (priority 2007, published 2010)", "assay_type_in_all_cases": "cell-based", "key": {"Botrytis cinerea": {"tested_on": "Botrytis cinerea", "assay": "Botrytis cinerea microtest in liquid medium (PDB), microtitre plates, optical density", "details": "5 days incubation, 100% = no fungal growth"}, "Pyricularia oryzae": {"tested_on": "Pyricularia oryzae", "details": "3 days incubation, 100% = no fungal growth"}, "Gibberella zeae": {"tested_on": "Gibberella zeae", "details": "3 days incubation, 100% = no fungal growth"}, "Rhizoctonia solani": {"tested_on": "Rhizoctonia solani", "assay": "Rhizoctonia solani microtest in liquid medium (PDB), microtitre plates, optical density", "details": "5 days incubation, 100% = no fungal growth"}}, "note": "Where two headings read alike, the source gives them in different places."}
{"smiles": "CC1=CC(O/C=C2/C(=O)OC3c4ccccc4CC23)OC1=O", "note": "(stereo not shown) [Compound A]", "values": [{"measurement": "Efficacy in %", "setting": "Botrytis cinerea; 0.0000001 ppm", "result": 8, "unit": "%"}, {"measurement": "Efficacy in %", "setting": "Botrytis cinerea; 0.00003 ppm", "result": 1, "unit": "%"}, {"measurement": "Efficacy in %", "setting": "Pyricularia oryzae; 0.00003 ppm", "result": 4, "unit": "%"}, {"measurement": "Efficacy in %", "setting": "Gibberella zeae; 0.0000001 ppm", "result": 35, "unit": "%"}, {"measurement": "Efficacy in %", "setting": "Rhizoctonia solani; 0.0000001 ppm", "result": 26, "unit": "%"}]}
{"smiles": "COCC(=O)N(c1c(C)cccc1C)C(C)C(=O)OC", "note": "(stereo not shown) [Metalaxyl]", "values": [{"measurement": "Efficacy in %", "setting": "Rhizoctonia solani; 0.001 ppm", "result": 27, "unit": "%"}]}
{"smiles": "Cc1nn(C)c(F)c1C(=O)Nc1ccccc1C(C)CC(C)C", "note": "(stereo not shown) [N-[2-(1,3-Dimethylbutyl)phenyl]-5-fluor-1,3-dimethyl-1H-pyrazol-4-carboxamid]", "values": [{"measurement": "Efficacy in %", "setting": "Botrytis cinerea; 0.001 ppm", "result": 17, "unit": "%"}]}
{"smiles": "OC(Cc1ccccc1Cl)(Cn1nc[nH]c1=S)C1(Cl)CC1", "note": "(stereo not shown) [Prothioconazole]", "values": [{"measurement": "Efficacy in %", "setting": "Botrytis cinerea; 0.3 ppm", "result": 40, "unit": "%"}]}
{"smiles": "CC(C)(C)C(O)(CCc1ccc(Cl)cc1)Cn1cncn1", "note": "(stereo not shown) [Tebuconazole]", "values": [{"measurement": "Efficacy in %", "setting": "Gibberella zeae; 0.001 ppm", "result": 23, "unit": "%"}]}
{"smiles": "CON=C(C(=O)OC)c1ccccc1CON=C(C)c1cccc(C(F)(F)F)c1", "note": "[Trifloxystrobin]", "values": [{"measurement": "Efficacy in %", "setting": "Pyricularia oryzae; 0.3 ppm", "result": 58, "unit": "%"}]}
